The results in this text go back to US20230077362A1 (CORTEVA AGRISCIENCE LLC, priority 2019, published 2023).

Read-outs that look alike come from different tables or passages of the source.

By mortality is commonly meant the percentage killed.

For series [1], the system named is Cabbage Looper (Trichoplusia ni) ("CL"), second instar larvae. Kind of series: Bioassay on cabbage looper (CL), 128-well diet tray assay. The format is in vivo. The conditions noted are these: for pest or weed control at 50 µg/cm2 / mortality at 50 µg/cm2: Trichoplusia ni; for mortality at 50 µg/cm2 / CL rating: Table ABC, species CL; for mortality at 50 µg/cm2: 128-well diet tray assay, second instar larvae, read-out: CL rating (% control or mortality class); for CL rating: C = not tested, D = no activity noticed. Put shortly: (§1)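 Sealed trays, 25° C., 14:10 light:dark, 5–7 d. Per-well % mortality recorded, mean of eight wells reported.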

For series [2], the system named is Beet Armyworm (Spodoptera exigua) ("BAW"), second instar larvae. Nature of the series: Bioassay on beet armyworm (BAW), 128-well diet tray assay. The note with it: for pest or weed control at 50 µg/cm2: Spodoptera exigua; for BAW rating (% control or mortality class) / BAW rating: Table ABC, species BAW; for BAW rating (% control or mortality class): 128-well diet tray assay, second instar larvae; for BAW rating: C = not tested, D = no activity noticed. The format is in vivo. Put shortly: as §1

Where [3] appears, read: read-out: CL (Biological Results, rating).
The mark [4] stands for this setting: read-out: BAW (Biological Results, rating).

As to `Cc1ccc(COCCF)c(N2C(=O)CS/C2=N\C(=O)Nc2ccc(-c3ncn(-c4ccc(S(F)(F)(F)(F)F)cc4)n3)cc2F)c1` [Compound J552], the pest or weed control at 50 µg/cm2 in series [1] (read-out: CL rating) and in series [2] (read-out: BAW rating) was 50 to 100% throughout.
On to `Cc1ccc(C(F)(F)F)c(N2C(=O)CS/C2=N\C(=O)Nc2ccc(-c3ncn(-c4ccc(OC(F)(F)F)cc4)n3)cc2F)c1` [Compound J30, (Z)-1-(2-Fluoro-4-(1-(4-(trifluoromethoxy)phenyl)-1H-1,2,4-triazol-3-yl)phenyl)-3-(3-(5-methyl-2-(trifluoromethyl)phenyl)-4-oxothiazolidin-2-ylidene)urea], for which the pest or weed control at 50 µg/cm2 in series [1] (setting [3]) and in series [2] (setting [4]) was 50 to 100% each time.
`Cc1ccc(COCC(F)(F)F)c(N2C(=O)C(CO)(CO)S/C2=N\C(=O)Nc2ccc(-c3ncn(-c4ccc(OC(F)(F)F)cc4)n3)cc2F)c1` [Compound J778, (Z)-1-(5,5-Bis(hydroxymethyl)-3-(5-methyl-2-((2,2,2-trifluoroethoxy)methyl)phenyl)-4-oxothiazolidin-2-ylidene)-3-(2-fluoro-4-(1-(4-(trifluoromethoxy)phenyl)-1H-1,2,4-triazol-3-yl)phenyl)urea]: the pest or weed control at 50 µg/cm2 in series [1] (read-out: CL rating) and in series [2] (read-out: BAW rating) was 50 to 100% each time.
In the case of `Cc1ccc(COCC(F)(F)F)c(N2C(=O)CS/C2=N\C(=O)Nc2ccc(-c3ncn(-c4ccc(C(F)(F)C(F)(F)F)cc4)n3)cc2C)c1` [Compound J794, (Z)-1-(3-(5-Methyl-2-((2,2,2-trifluoroethoxy)methyl)phenyl)-4-oxothiazolidin-2-ylidene)-3-(2-methyl-4-(1-(4-(perfluoroethyl)phenyl)-1H-1,2,4-triazol-3-yl)phenyl)urea], the mortality at 50 µg/cm2 in series [1] is 50 to 100%. Also, the “BAW rating (% control or mortality class)” value in series [2] is reported as “A (50-100)”.
As to `O=C(/N=C1\SCC(=O)N1c1cc(F)ccc1COCC(F)(F)F)Nc1ccc(-c2ncn(-c3ccc(S(=O)(=O)C(F)(F)F)cc3)n2)cc1F` [Compound J670, (Z)-1-(3-(5-Fluoro-2-((2,2,2-trifluoroethoxy)methyl)phenyl)-4-oxothiazolidin-2-ylidene)-3-(2-fluoro-4-(1-(4-((trifluoromethyl)sulfonyl)phenyl)-1H-1,2,4-triazol-3-yl)phenyl)urea], the pest or weed control at 50 µg/cm2 in series [1] (read-out: CL rating) and in series [2] (read-out: BAW rating) was 50 to 100% in each case.
As to `CCOCc1ccc(C)cc1N1C(=O)CS/C1=N\C(=O)Nc1ccc(-c2ncn(-c3ccc(C(F)(F)C(F)(F)F)cc3)n2)cc1C` [Compound J796, (Z)-1-(3-(2-(Ethoxymethyl)-5-methylphenyl)-4-oxothiazolidin-2-ylidene)-3-(2-methyl-4-(1-(4-(perfluoroethyl)phenyl)-1H-1,2,4-triazol-3-yl)phenyl)urea], in series [1], the mortality at 50 µg/cm2 is 50 to 100%. In addition, the “BAW rating (% control or mortality class)” value in series [2] is recorded as “A (50-100)”.
Consider `CCCOCc1ccc(C)cc1N1C(=O)CS/C1=N\C(=O)Nc1ccc(-c2ncn(-c3ccc(OC(F)(F)F)cc3)n2)cc1C` [Compound J546], for which the CL rating entry in series [1] is recorded as “A (50-100)”. Further, in series [2], the BAW rating result was “A (50-100)”.
`Cc1ccc(OCCCC(F)(F)F)c(N2C(=O)CS/C2=N\C(=O)Nc2ccc(-n3cnc(-c4ccc(OC(F)(F)F)cc4)n3)cc2C)c1` [Compound J465, (Z)-1-(3-(5-Methyl-2-(4,4,4-trifluorobutoxy)phenyl)-4-oxothiazolidin-2-ylidene)-3-(2-methyl-4-(3-(4-(trifluoromethoxy)phenyl)-1H-1,2,4-triazol-1-yl)phenyl)urea]: the pest or weed control at 50 µg/cm2 in series [1] (read-out: CL rating) and in series [2] (read-out: BAW rating) was 50 to 100% throughout.
As for `COC(C)c1ccc(C)cc1N1C(=O)CS/C1=N\C(=O)Nc1ccc(-c2cn(-c3ccc(C(F)(F)F)cc3)cn2)cc1` (stereo not drawn) [Compound J513, (Z)-1-(3-(2-(1-Methoxyethyl)-5-methylphenyl)-4-oxothiazolidin-2-ylidene)-3-(4-(1-(4-(trifluoromethyl)phenyl)-1H-imidazol-4-yl)phenyl)urea], the pest or weed control at 50 µg/cm2 in series [1] (read-out: CL rating) and in series [2] (read-out: BAW rating) was 50 to 100% throughout.
Regarding `CC(C)c1ccc(N(C)C)cc1N1C(=O)CS/C1=N\C(=O)Nc1ccc(-c2nnc(-c3ccc(OC(F)(F)F)cc3)o2)cc1F` [Compound J431, (Z)-1-(3-(5-(Dimethylamino)-2-isopropylphenyl)-4-oxothiazolidin-2-ylidene)-3-(2-fluoro-4-(5-(4-(trifluoromethoxy)phenyl)-1,3,4-oxadiazol-2-yl)phenyl)urea], the pest or weed control at 50 µg/cm2 in series [1] (read-out: CL rating) and in series [2] (read-out: BAW rating) was 50 to 100% throughout.
For the compound `COc1ccc(-n2cnc(-c3ccc(NC(=O)/N=C4\SCC(=O)N4c4cc(C)ccc4COCC(F)(F)F)c(F)c3)n2)cc1` [Compound J754, (Z)-1-(2-Fluoro-4-(1-(4-methoxyphenyl)-1H-1,2,4-triazol-3-yl)phenyl)-3-(3-(5-methyl-2-((2,2,2-trifluoroethoxy)methyl)phenyl)-4-oxothiazolidin-2-ylidene)urea], the pest or weed control at 50 µg/cm2 in series [1] (read-out: CL rating) and in series [2] (read-out: BAW rating) was 50 to 100% each time.
For `COCc1ccc(C)cc1N1C(=O)CS/C1=N\C(=O)Nc1ccc(-c2noc(-c3ccc(OC(F)(F)F)cc3)n2)cc1F` [Compound J772, (Z)-1-(2-Fluoro-4-(5-(4-(trifluoromethoxy)phenyl)-1,2,4-oxadiazol-3-yl)phenyl)-3-(3-(2-(methoxymethyl)-5-methylphenyl)-4-oxothiazolidin-2-ylidene)urea], the pest or weed control at 50 µg/cm2 in series [1] (read-out: CL rating) and in series [2] (read-out: BAW rating) was 50 to 100% in each case.
Consider `Cc1ccc(OCCC(F)(F)F)c(N2C(=O)CS/C2=N\C(=O)Nc2ccc(-n3cnc(-c4ccc(C(F)(F)F)cc4)n3)cc2F)c1` [Compound J702, (Z)-1-(2-Fluoro-4-(3-(4-(trifluoromethyl)phenyl)-1H-1,2,4-triazol-1-yl)phenyl)-3-(3-(5-methyl-2-(3,3,3-trifluoropropoxy)phenyl)-4-oxothiazolidin-2-ylidene)urea], for which the pest or weed control at 50 µg/cm2 in series [1] (read-out: CL rating) and in series [2] (read-out: BAW rating) was 50 to 100% throughout.
`COC(c1ccc(C)cc1N1C(=O)CS/C1=N\C(=O)Nc1ccc(-c2ncn(-c3ccc(C(F)(F)F)cn3)n2)cc1F)C(F)(F)F` (stereo not drawn) [Compound J377]: in series [1], the CL rating result is “A (50-100)”. Also, in series [2], the BAW rating result is listed as “A (50-100)”.
Consider `CC(C)c1ccc(C(C)C)c(N2C(=O)CS/C2=N\C(=O)Nc2ccc(-c3ncn(-c4ccc(OC(F)(F)F)cc4)n3)cc2F)c1` [Compound J164, (Z)-1-(3-(2,5-Diisopropylphenyl)-4-oxothiazolidin-2-ylidene)-3-(2-fluoro-4-(1-(4-(trifluoromethoxy)phenyl)-1H-1,2,4-triazol-3-yl)phenyl)urea], for which the pest or weed control at 50 µg/cm2 in series [1] (setting [3]) and in series [2] (setting [4]) was 50 to 100% throughout.
Turning to `CC(C)c1ccc(N(C)C)cc1N1C(=O)CS/C1=N\C(=O)Nc1ccc(-c2ncn(-c3ccc(OC(F)(F)F)cc3)n2)cc1C#N` [Compound J242, (Z)-1-(2-Cyano-4-(1-(4-(trifluoromethoxy)phenyl)-1H-1,2,4-triazol-3-yl)phenyl)-3-(3-(5-(dimethylamino)-2-isopropylphenyl)-4-oxothiazolidin-2-ylidene)urea], the pest or weed control at 50 µg/cm2 in series [1] (setting [3]) and in series [2] (setting [4]) was 50 to 100% each time.
Turning to `Cc1cc(-c2ncn(-c3ccc(OC(F)(F)F)cc3)n2)ccc1NC(=O)/N=C1\SCC(=O)N1c1cc(N(C)C)ccc1C(C)C` [Compound J68, (Z)-1-(3-(5-(Dimethylamino)-2-isopropylphenyl)-4-oxothiazolidin-2-ylidene)-3-(2-methyl-4-(1-(4-(trifluoromethoxy)phenyl)-1H-1,2,4-triazol-3-yl)phenyl)urea], the pest or weed control at 50 µg/cm2 in series [1] (setting [3]) and in series [2] (setting [4]) was 50 to 100% in each case.
For `Cc1ccc(C(F)(F)F)c(N2C(=O)CS/C2=N\C(=O)Nc2ccc(-c3ncn(-c4ccc(OC(F)(F)F)cn4)n3)cc2F)c1` [Compound J271, (Z)-1-(2-Fluoro-4-(1-(5-(trifluoromethoxy)pyridin-2-yl)-1H-1,2,4-triazol-3-yl)phenyl)-3-(3-(5-methyl-2-(trifluoromethyl)phenyl)-4-oxothiazolidin-2-ylidene)urea], the pest or weed control at 50 µg/cm2 in series [1] (setting [3]) and in series [2] (setting [4]) was 50 to 100% throughout.
As for `Cc1ccc(COCC(F)(F)F)c(N2C(=O)CS/C2=N\C(=O)Nc2ccc(-c3ncn(-c4ccc(OC(F)(F)F)cc4)n3)cc2Br)c1` [Compound J222, (Z)-1-(2-Bromo-4-(1-(4-(trifluoromethoxy)phenyl)-1H-1,2,4-triazol-3-yl)phenyl)-3-(3-(5-methyl-2-((2,2,2-trifluoroethoxy)methyl)phenyl)-4-oxothiazolidin-2-ylidene)urea], the pest or weed control at 50 µg/cm2 in series [1] (setting [3]) and in series [2] (setting [4]) was 50 to 100% throughout.
Regarding `COc1ccc(COCC(F)(F)F)c(N2C(=O)CS/C2=N\C(=O)Nc2ccc(-c3ncn(-c4ccc(OC(F)(F)F)cc4)n3)cc2F)c1` [Compound J564], the CL rating result in series [1] was “A (50-100)”. In addition, the BAW rating result in series [2] is “A (50-100)”.
As to `Cc1ccc(C(C)C)c(N2C(=O)CS/C2=N\C(=O)Nc2ccc(-c3ncn(-c4cccc(C(F)(F)F)c4)n3)cc2)c1` [Compound J323, (Z)-1-(3-(2-isopropyl-5-methylphenyl)-4-oxothiazolidin-2-ylidene)-3-(4-(1-(3-(trifluoromethyl)phenyl)-1H-1,2,4-triazol-3-yl)phenyl)urea], the pest or weed control at 50 µg/cm2 in series [1] (setting [3]) and in series [2] (setting [4]) was 50 to 100% throughout.
